Reference: patent US20230172915A1, “DHODH INHIBITOR FOR THE TREATMENT OF COVID-19” (priority 2020, published 2023)
Read-outs that look alike come from different tables or passages of the source.

Experiments:
[1] = test system: primary acute myeloid leukemia (AML) blast cells; conditions: Cao 2020; cited from earlier work
[2] = test system: Chinese hamster ovary cells
Rift Valley fever virus = assay: microbe, parasite or virus in culture; format: cell-based; conditions: HeLa, read-out: EC50 Rift Valley fever virus
[3] = Clinical studies of PTC299 (oncology patients, healthy volunteers): tolerability; format: in vivo, human
Source text: PTC299 has been extensively evaluated in 9 clinical studies; 5 were in oncology (n=134) and 4 were in healthy volunteers (n=169).
The rationale for this dosing is based on the following: • The dosing regimen utilizes results from PTC’s extensive clinical, safety, and clinical pharmacology experience with the capsule formulation of PTC299 that was used in prior solid tumor clinical studies. • The tablet formulation has approximately 40% relative bioavailability compared with the capsule when administered with food. • The 200 mg BID dosing for 7 days have been tested previously in healthy volunteers in study PTC299-ONC-002-HV with no serious adverse events. […] The dosing of 200 mg BID for the first 7 days will raise the exposure of the drug quickly to accommodate the need for rapid onset of PTC299 activity..

[4] = Cytotoxicity in Vero cells by intracellular ATP; conditions: African green monkey
SARS-CoV-2 = SARS-CoV-2 infected Vero cells, N-protein antibody and DAPI staining; conditions: 30 nM, 300 nM
[5] = Phase 1 multiple dose study PTC299-ONC-002-HV in healthy volunteers (PK, safety); format: in vivo, human; conditions: for AUC: read-out: AUCO-4
Protocol: The PK of the 200 mg BID dosed for 7 days and 50 mg for 7 days was evaluated in a phase 1, escalating, multiple dose, safety, tolerability, and PK study, PTC299-ONC-002-HV (N=32; n=24 received PTC299 and 8 received placebo).
Study PTC299-ONC-002-HV had 2 stages; in Stage 1, doses ranged from 0.3 to 1.2 mg/kg BID, and in Stage 2, a 1.6 mg/kg TID dose was administered. Patients received the capsule formulation of PTC299 for 7 days in both stages. Dose of 200 mg tablet is approximately 1.2 mg/kg capsule whereas 50 mg tablet is approximately 0.3 mg/kg of capsule formulation.

SARS-CoV-2 USA-WA1/2020 = assay: PTC299 and remdesivir alone or combined, SARS-CoV-2 titer in Vero cells (TCID50); format: cell-based; conditions: 24 hours post infection
[6] = Rhesus monkey single oral dose PK; format: in vivo, Rhesus monkeys; conditions: single oral 10 mg/kg dose
Protocol: (§1) FIG. 10 is a plot of PTC299 plasma concentration (µg/mL) vs hours of plasma dihydroorotate (DHO) and PTC299 concentrations after a single dose of PTC299 was administered to a single monkey.
(§2) The dosing regimen used in the current study was also supported by experiments performed in Rhesus monkeys. Monkeys were given a single oral 10 mg/kg dose of PTC299. The DHO plasma level increased after dosing, peaked at 24 hours and then decreased, as illustrated in FIG. 10. […] The AUC for PTC299 is consistent with that observed in the healthy volunteer study PTC299-ONC-002-HV indicating this exposure would result in inhibition of DHODH and supports the use of the 200 mg BID dosing regimen in the current study.

[7] = test system: TH2 cells plus venular endothelial cells (/TH2); assay: BioMAP profiling, /TH2 system; format: cell-based; conditions: Endothelial cell; for inhibition at 0.1 µM: /TH2, 100 nM
Protocol: The effect of PTC299 on cytokine production was assessed using BioMAP profiling (BioSeek, now part of Eurofins). The BioMAP system is comprised of complex co-cultures of primary peripheral blood mononuclear cells (PBMCs) with other cell types including B cells, fibroblasts, and endothelial cells allowing for the measurement of physiologically relevant biomarker readouts of the activity of a compound. Using this system, cytokine production was evaluated in the following models of primary cell disease models: • Peripheral blood mononuclear cells (PBMCs) plus venular endothelial cells (sAg) • PBMCs plus B cells (BT) • PBMCs plus fibroblasts (HDFSAg) • TH2 cells plus venular endothelial cells (/TH2).
Abbreviations in Table 4: BCR, B-cell receptor; BT System, co-culture of CD19+ B cells and PBMC that utilizes BCR stimulation and sub-mitogenic TCR stimulation; HDFSAg system, co-culture of human primary dermal fibroblasts and PBMC that is stimulated with sub-mitogenic TCR levels; IL, interleukin; PBMC, Peripheral Blood Mononuclear Cell; SAg system, co-culture of endothelial cells and PBMC stimulated with mitogenic levels of TCR ligands; TCR, T-cell receptor; /TH2 system, co-culture of endothelial cells and Th2 blasts stimulated with TCR ligands and cytokines; Th2, T helper type 2; VEGF, vascular endothelial growth factor.

DHODH = assay: Rhesus monkey single oral dose PD (plasma DHO); format: in vivo, Rhesus monkeys; conditions: after single oral 10 mg/kg dose of PTC299, Rhesus monkey
Protocol: as §1, §2

[8] = Single- and repeat-dose toxicology studies in dogs
[9] = human, plasma, oral, 0.3 mg/kg, 0.3 mg/kg BID, Day 1, capsule
[10] = human, plasma, oral, 0.3 mg/kg, 0.3 mg/kg BID, Day 7, capsule
[11] = human, plasma, oral, 0.6 mg/kg, 0.6 mg/kg BID, Day 1, capsule
[12] = human, plasma, oral, 0.6 mg/kg, 0.6 mg/kg BID, Day 7, capsule
[13] = human, plasma, oral, 1.2 mg/kg, 1.2 mg/kg BID, Day 1, capsule
[14] = human, plasma, oral, 1.2 mg/kg, 1.2 mg/kg BID, Day 7, capsule
[15] = human, plasma, oral, 1.6 mg/kg, 1.6 mg/kg TID, Day 1, capsule
[16] = human, plasma, oral, 1.6 mg/kg, 1.6 mg/kg TID, Day 7, capsule

In the case of `COc1ccc([C@H]2c3[nH]c4ccc(Cl)cc4c3CCN2C(=O)Oc2ccc(Cl)cc2)cc1` [PTC299, 4-chlorophenyl (S)-6-chloro-1-(4-methoxyphenyl)-1,3,4,9-tetrahydro-2H-pyrido[3,4-b]indole-2-carboxylate], the “effect on primary AML blast cells” value [1] is given as “caused a G1/S cell-cycle arrest, inhibition of proliferation, and cell death”, the chromosomal aberration assay [2] is given as “negative” and the EC50 (Rift Valley fever virus) is given as 13 nM. For the same molecule, the “tolerability across 9 clinical studies” value ([3]; oncology n=134, healthy volunteers n=169, range of dosing regimens) was “generally well tolerated”, the dose-related hepatotoxicity ([3]; prior clinical studies) was “observed at higher doses and longer treatment durations (>85 days)” and the CC50 at 48 h [4] was > 10000 nM. The “viability of the cells (DAPI stain)” value (SARS-CoV-2; 3 µM) was “not cytotoxic”, the “viral levels by N-protein antibody staining” value (SARS-CoV-2; 3 µM versus untreated controls) was “Increasing the PTC299 concentration led to greater reductions” and the Tl/2 ([5]; 0.3 mg/kg BID, Day 7, capsule) was 164 h. It also gave a Tmax ([5]; 0.6 mg/kg BID, Day 1, capsule) of 3.0 h, a Tl/2 ([5]; 0.6 mg/kg BID, Day 7, capsule) of 210 h and a Tl/2 ([5]; 1.2 mg/kg BID, Day 7, capsule) of 228 h. For the same molecule, the Tl/2 ([5]; 1.6 mg/kg TID, Day 7, capsule) was 225 h, the “SAEs during study PTC299-ONC-002-HV” value ([5]; healthy volunteers, 7 days, 0.3 to 1.2 mg/kg BID and 1.6 mg/kg TID) was “no SAEs occurred” and the Cmax [5, 9] was 280 ng/mL. It also gave an AUC [5, 9] of 4310 ng·h/mL, a Tmax ([5]; human, plasma, oral, 0.3 mg/kg, 0.3 mg/kg BID, Day 1, capsule, read-out: Tmax) of 4 h and a Cmax [5, 10] of 510 ng/mL. The AUC [5, 10] was 8440 ng·h/mL, the Tmax ([5]; human, plasma, oral, 0.3 mg/kg, 0.3 mg/kg BID, Day 7, capsule, read-out: Tmax) was 3.5 h and the Cmax [5, 11] was 710 ng/mL. For the same molecule, the AUC [5, 11] was 10100 ng·h/mL, the Cmax [5, 12] was 1110 ng/mL and the AUC [5, 12] was 18600 ng·h/mL. For the same molecule, the Tmax ([5]; human, plasma, oral, 0.6 mg/kg, 0.6 mg/kg BID, Day 7, capsule, read-out: Tmax) was 4 h, the Cmax [5, 13] was 1140 ng/mL and the AUC [5, 13] was 18000 ng·h/mL. It also gave a Tmax ([5]; human, plasma, oral, 1.2 mg/kg, 1.2 mg/kg BID, Day 1, capsule, read-out: Tmax) of 3.5 h, a Cmax [5, 14] of 2110 ng/mL and an AUC [5, 14] of ~32900 ng·h/mL. For the same molecule, the Tmax ([5]; human, plasma, oral, 1.2 mg/kg, 1.2 mg/kg BID, Day 7, capsule, read-out: Tmax) was 4 h, the Cmax [5, 15] was 1670 ng/mL and the AUC [5, 15] was 37100 ng·h/mL. For the same molecule, the Cmax [5, 16] was 3530 ng/mL, the AUC [5, 16] was 78600 ng·h/mL and the “reduction in SARS-CoV-2 titer” value (SARS-CoV-2 USA-WA1/2020; PTC299 250 nM) was 96%. The “reduction in SARS-CoV-2 titer” value (SARS-CoV-2 USA-WA1/2020; PTC299 500 nM) was 98%, the AUC ([6]; plasma, read-out: AUC of PTC299) was 22500 ng·h/mL and the Cmax ([6]; plasma, read-out: Cmax of PTC299) was 2510 ng/mL. For the same molecule, the half-life ([6]; plasma, read-out: Half-life of PTC299 (converted)) was 33 h, the “Tmax of PTC299” value [6] was 2 hr post-dose and the inhibition at 0.01 µM ([7]; /TH2, 10 nM, read-out: % Inhibition MCP-1 (converted)) was 21%. The inhibition at 0.1 µM ([7]; read-out: % Inhibition MCP-1 (converted)) was 25%, the inhibition at 0.1 µM ([7]; read-out: % Inhibition sIL-17) was 23% and the “AUC of plasma DHO” value (DHODH) was 71.4 µg·h/mL. For the same molecule, the “alanine aminotransferase, aspartate aminotransferase, and total bilirubin” value ([8]; dogs dosed through 28 days) was “no increases”, the “histopathologic findings in the liver” value ([8]; dogs dosed through 28 days) was “no histopathologic findings in the liver” and the PTC299-related mortality ([8]; dogs, toxicology studies) was “No PTC299-related mortality was observed”.
